Legend:
MDA-MB-361 = assay: Antiproliferative activity against human MDA-MB-361 cells assessed as cell growth inhibition measured after 72 hrs by MTT assay; assay type: functional, cell-based; details: MDA-MB-361, 72 h
MCF7 [1] = assay: Antiproliferative activity against human MCF7 cells assessed as cell growth inhibition measured after 72 hrs by MTT assay; assay type: functional, cell-based; details: MCF7, 72 h
T47D = assay: Antiproliferative activity against human T47D cells assessed as cell growth inhibition measured after 72 hrs by MTT assay; assay type: functional, cell-based
[2] = target: 3-oxo-5-alpha-steroid 4-dehydrogenase 1 (Homo sapiens, UniProt P18405); assay: Inhibition of human prostate SRD5A1 incubated for 60 mins by scintillation counter; assay type: tissue-based, Prostate gland
Sequence of 3-oxo-5-alpha-steroid 4-dehydrogenase 1 (Homo sapiens, UniProt P18405) (P18405 whole entry): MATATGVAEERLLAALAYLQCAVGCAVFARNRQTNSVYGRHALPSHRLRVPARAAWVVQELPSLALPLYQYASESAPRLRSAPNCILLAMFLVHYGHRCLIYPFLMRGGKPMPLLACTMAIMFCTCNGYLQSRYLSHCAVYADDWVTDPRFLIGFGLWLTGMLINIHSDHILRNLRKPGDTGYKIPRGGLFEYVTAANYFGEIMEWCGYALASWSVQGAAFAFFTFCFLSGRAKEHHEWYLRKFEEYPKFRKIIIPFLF

[3] = target: 3-oxo-5-alpha-steroid 4-dehydrogenase 2 (Homo sapiens, UniProt P31213); assay: Inhibition of SRD5A2 in HEK293 incubated for 60 mins by thin layer chromatography; assay type: cell-based
Sequence of 3-oxo-5-alpha-steroid 4-dehydrogenase 2 (Homo sapiens, UniProt P31213) (P31213 whole entry): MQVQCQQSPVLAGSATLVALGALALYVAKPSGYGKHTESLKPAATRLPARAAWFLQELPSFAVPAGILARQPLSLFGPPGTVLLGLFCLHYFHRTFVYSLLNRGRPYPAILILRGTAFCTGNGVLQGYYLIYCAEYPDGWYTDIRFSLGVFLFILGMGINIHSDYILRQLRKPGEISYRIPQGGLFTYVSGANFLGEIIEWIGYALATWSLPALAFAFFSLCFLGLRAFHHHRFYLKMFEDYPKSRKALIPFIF

[4] = Antiproliferative activity against human WM35 cells assessed as cell growth inhibition measured after 5 days by MTT assay; assay type: functional, cell-based; details: WM35, 120 h
K562 = assay: Antiproliferative activity against human K562 cells assessed as cell growth inhibition measured after 5 days by MTT assay; assay type: functional, cell-based; details: K562, 120 h
Tubulin = Tubulin (Sus scrofa, UniProt P02554+P02550); assay: Inhibition of porcine brain tubulin polymerization preincubated for 30 mins followed by GTP addition by absorbance based analysis; assay type: tissue-based
OVCAR-3 = assay: Antiproliferative activity against human OVCAR-3 cells assessed as cell growth inhibition measured after 5 days by MTT assay; assay type: functional, cell-based; details: OVCAR-3, 120 h
PC-3 = assay: Antiproliferative activity against human PC-3 cells assessed as cell growth inhibition measured after 96 hrs by MTT assay; assay type: functional, cell-based; details: PC-3, 96 h
LNCaP = assay: Antiproliferative activity against human LNCaP cells assessed as cell growth inhibition measured after 96 hrs by MTT assay; assay type: functional, cell-based
[5] = Antiproliferative activity against human HMEC-1 cells assessed as cell growth inhibition measured after 4 days by coulter counter assay; assay type: toxicity, cell-based
HeLa [6] = assay: Antiproliferative activity against human HeLa cells assessed as cell growth inhibition measured after 4 days by coulter counter assay; assay type: functional, cell-based; details: 96 h
CCRF-CEM [7] = assay: Antiproliferative activity against human CEM cells assessed as cell growth inhibition measured after 4 days by coulter counter assay; assay type: functional, cell-based; details: 96 h
Bacillus cereus = assay: Antibacterial activity against Bacillus cereus ATCC 11778 assessed as inhibition of bacterial growth measured after 24 hrs by CLSI protocol based microdilution assay; assay type: functional
Corynebacterium sp. = assay: Antibacterial activity against Corynebacterium assessed as inhibition of bacterial growth measured after 24 hrs by CLSI protocol based microdilution assay; assay type: functional
Staphylococcus aureus [8] = assay: Antibacterial activity against methicillin resistant Staphylococcus aureus chicken isolate assessed as inhibition of bacterial growth measured after 24 hrs by CLSI protocol based microdilution assay; assay type: functional
Staphylococcus aureus [9] = assay: Antibacterial activity against methicillin resistant Staphylococcus aureus ATCC 25923 assessed as inhibition of bacterial growth measured after 24 hrs by CLSI protocol based microdilution assay; assay type: functional
Staphylococcus aureus [10] = assay: Antibacterial activity against methicillin resistant Staphylococcus aureus ATCC 43300 assessed as inhibition of bacterial growth measured after 24 hrs by CLSI protocol based microdilution assay; assay type: functional
Enterococcus faecalis = assay: Antibacterial activity against Enterococcus faecalis ATCC 19433 assessed as inhibition of bacterial growth measured after 24 hrs by CLSI protocol based microdilution assay; assay type: functional
Brevibacterium = assay: Antibacterial activity against Brevibacterium assessed as inhibition of bacterial growth measured after 24 hrs by CLSI protocol based microdilution assay; assay type: functional
Staphylococcus aureus [11] = assay: Antibacterial activity against methicillin resistant Staphylococcus aureus human isolate assessed as inhibition of bacterial growth measured after 24 hrs by CLSI protocol based microdilution assay; assay type: functional
Escherichia coli = assay: Antibacterial activity against Escherichia coli DSM 10233 assessed as inhibition of bacterial growth measured after 24 hrs by CLSI protocol based microdilution assay; assay type: functional
Staphylococcus aureus [12] = assay: Antibacterial activity against Staphylococcus aureus ATCC 25923 assessed as inhibition of bacterial growth measured after 24 hrs by CLSI protocol based microdilution assay; assay type: functional
Candida albicans = assay: Antifungal activity against Candida albicans ATCC 10231 assessed as fungal growth inhibition measured after 24 hrs by CLSI protocol based microdilution assay; assay type: functional
ECa-109 cell line = assay: Antiproliferative activity against human EC109 cells assessed as cell growth inhibition measured after 72 hrs by MTT assay; assay type: functional, cell-based; details: ECa-109, 72 h
EC9706 = assay: Antiproliferative activity against human EC9706 cells assessed as cell growth inhibition measured after 72 hrs by MTT assay; assay type: functional, cell-based; details: EC9706, 72 h
MGC-803 = assay: Antiproliferative activity against human MGC-803 cells assessed as cell growth inhibition measured after 72 hrs by MTT assay; assay type: functional, cell-based; details: MGC-803, 72 h
[13] = target: 3-oxo-5-alpha-steroid 4-dehydrogenase 1 (Rattus norvegicus, UniProt P24008); assay: Inhibition of rat liver microsomal SRD5A1 incubated for 60 mins by thin layer chromatography; assay type: microsomes, Microsome
Sequence of 3-oxo-5-alpha-steroid 4-dehydrogenase 1 (Rattus norvegicus, UniProt P24008) (P24008 whole entry): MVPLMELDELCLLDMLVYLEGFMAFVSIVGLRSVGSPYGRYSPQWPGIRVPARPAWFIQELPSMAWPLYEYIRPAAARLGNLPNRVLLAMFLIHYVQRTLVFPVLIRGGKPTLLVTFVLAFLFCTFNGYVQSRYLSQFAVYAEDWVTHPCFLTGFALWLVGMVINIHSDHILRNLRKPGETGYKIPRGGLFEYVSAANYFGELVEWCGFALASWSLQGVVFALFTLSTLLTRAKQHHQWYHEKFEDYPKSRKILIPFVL

[14] = target: 3-oxo-5-alpha-steroid 4-dehydrogenase 2 (Rattus norvegicus, UniProt P31214); assay: Inhibition of rat liver microsomal SRD5A2 incubated for 60 mins by thin layer chromatography; assay type: microsomes, Microsome
Sequence of 3-oxo-5-alpha-steroid 4-dehydrogenase 2 (Rattus norvegicus, UniProt P31214) (P31214 whole entry): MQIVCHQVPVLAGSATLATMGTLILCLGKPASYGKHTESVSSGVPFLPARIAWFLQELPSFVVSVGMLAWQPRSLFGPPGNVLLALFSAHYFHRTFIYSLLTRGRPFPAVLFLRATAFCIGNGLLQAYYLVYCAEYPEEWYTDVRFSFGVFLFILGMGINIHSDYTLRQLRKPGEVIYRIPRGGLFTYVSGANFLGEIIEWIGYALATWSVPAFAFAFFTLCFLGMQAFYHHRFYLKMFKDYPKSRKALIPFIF

HT-29 = assay: Antiproliferative activity against human HT-29 cells assessed as cell growth inhibition; assay type: functional, cell-based
[15] = Antiproliferative activity against African green monkey Vero cells assessed as cell growth inhibition; assay type: toxicity, cell-based; details: African green monkey (Chlorocebus sabaeus)
CCRF-CEM [16] = assay: Antiproliferative activity against human CEM cells assessed as cell growth inhibition; assay type: functional, cell-based
HeLa [17] = assay: Antiproliferative activity against human HeLa cells assessed as cell growth inhibition; assay type: functional, cell-based
[18] = Antiangiogenesis activity in Bovine BAEC cells assessed as increase in tube formation incubated for 18 hrs by microscopic analysis; assay type: functional, cell-based; details: Bos taurus
[19] = Antiproliferative activity against human HMEC-1 cells assessed as cell growth inhibition; assay type: toxicity, cell-based
[20] = Inhibition of Wistar rat testicular 3beta-HSD incubated for 20 mins by liquid scintillation counting analysis; assay type: tissue-based, Testis
HepG2 [21] = assay: Antiproliferative activity against human HepG2 cells assessed as cell growth inhibition measured after 24 hrs by MTT assay; assay type: functional, cell-based; details: HepG2, 24 h
HepG2 [22] = assay: Antiproliferative activity against human HepG2 cells assessed as cell growth inhibition; assay type: functional, cell-based
SK-OV-3 = assay: Antiproliferative activity against human SK-OV-3 cells assessed as cell growth inhibition; assay type: functional, cell-based
MCF7 [23] = assay: Antiproliferative activity against human MCF7 cells assessed as cell growth inhibition; assay type: functional, cell-based
HepG2 [24] = assay: Antiproliferative activity against human HepG2 cells assessed as cell growth inhibition by MTT assay; assay type: functional, cell-based
Huh-7 = assay: Antiproliferative activity against human Huh-7 cells assessed as cell growth inhibition by MTT assay; assay type: functional, cell-based
SGC-7901 = assay: Antiproliferative activity against human SGC-7901 cells assessed as cell growth inhibition by MTT assay; assay type: functional, cell-based
MDA-MB-231 = assay: Antiproliferative activity against human MDA-MB-231 cells assessed as cell growth inhibition; assay type: functional, cell-based

Structure (SMILES): C[C@]12CC[C@H](O)CC1=CC[C@@H]1[C@@H]2CC[C@]2(C)C3=NN(c4ccc(C#N)cc4)C[C@@H]3C[C@@H]12
- IC50 (MDA-MB-361): 940 nM
- IC50 (MCF7 [1]): 1100 nM
- IC50 (T47D): 1450 nM

Structure (SMILES): CC(=O)N1N=C(C2=CC[C@H]3[C@@H]4CC=C5C[C@@H](O)CC[C@]5(C)[C@H]4CC[C@]23C)C[C@H]1c1ccc(F)cc1
- IC50 [2]: 13.9 nM
- IC50 [3]: 27.3 nM

Structure (SMILES): COc1cc2c(cc1O)CC[C@@H]1[C@@H]2CC[C@]2(C)[C@@H](c3cn(-c4ccc(C(F)(F)F)cc4)nn3)CC[C@@H]12
- IC50 [4]: 1900 nM
- IC50 (K562): 1000 nM
- IC50 (Tubulin): 8100 nM
- IC50 (OVCAR-3): 1400 nM

Structure (SMILES): C[C@]12CC[C@H](O)CC1=CC[C@@H]1[C@@H]2CC[C@]2(C)C(c3nc4ccccc4[nH]3)=CC[C@@H]12
- IC50 (PC-3): 6900 nM
- IC50 (LNCaP): 3800 nM

Structure (SMILES): C[C@]12CC[C@H](O)CC1=CC[C@@H]1[C@@H]2CC[C@]2(C)C(c3ccc4[nH]ccc4c3)=CC[C@@H]12
- IC50 at 4 days [5]: 590 nM
- IC50 (HeLa [6]): 2900 nM
- IC50 (CCRF-CEM [7]): 1500 nM

Structure (SMILES): CCCCCCCn1c[n+](CCCCCCC)c2c1[C@@]1(C)CC[C@H]3[C@@H](CC=C4C[C@@H](O)CC[C@@]43C)[C@@H]1C2.[I-]
- MIC (Bacillus cereus): 0.5 µg/mL
- MIC (Corynebacterium sp.): 1 µg/mL
- MIC (Staphylococcus aureus [8]): 0.5 µg/mL
- MIC (Staphylococcus aureus [9]): 1 µg/mL
- MIC (Staphylococcus aureus [10]): 1 µg/mL
- MIC (Enterococcus faecalis): 1 µg/mL
- MIC (Brevibacterium): 0.25 µg/mL
- MIC (Staphylococcus aureus [11]): 1 µg/mL
- MIC (Escherichia coli): 4 µg/mL
- MIC (Staphylococcus aureus [12]): 0.25 µg/mL
- MIC (Candida albicans): 1 µg/mL

Structure (SMILES): C[C@]12CC[C@H](O)CC1=CC[C@@H]1[C@@H]2CC[C@]2(C)c3nc(NCc4ccc(Cl)cc4)sc3C[C@@H]12
- IC50 (ECa-109 cell line): 196 nM
- IC50 (EC9706): 39300 nM
- IC50 (MGC-803): 10300 nM

Structure (SMILES): COc1cc2c(cc1O)CC[C@@H]1[C@@H]2CC[C@]2(C)[C@@H](c3cn(-c4ccc(OC(F)(F)F)cc4)nn3)CC[C@@H]12
- IC50 [4]: 2900 nM
- IC50 (K562): 700 nM
- IC50 (Tubulin): 5900 nM
- IC50 (OVCAR-3): 900 nM

Structure (SMILES): C[C@]12CC[C@H](OC(=O)C3CC3)CC1=CC[C@@H]1[C@@H]2CC[C@]2(C)C(n3cnc4ccccc43)=C(C=O)C[C@@H]12
- IC50 [13]: 320 nM
- IC50 [14]: 4 nM

Structure (SMILES): COc1cc2c(cc1OS(N)(=O)=O)CC[C@@H]1[C@@H]2CC[C@]2(C)C(c3ccnc(Cl)c3)=CC[C@@H]12
- IC50 (HT-29): 430 nM
- IC50 [15]: 1300 nM
- IC50 (Tubulin): 2300 nM
- IC50 (CCRF-CEM [16]): 260 nM
- IC50 (HeLa [17]): 1600 nM
- IC50 [18]: 100 nM
- IC50 [19]: 2300 nM

Structure (SMILES): COC(=O)c1cc([C@H]2CC[C@H]3[C@@H]4CCC5=CC(=O)CC[C@]5(C)[C@H]4CC[C@]23C)n(-c2ccc(OC)cc2)n1
- IC50 [20]: 420 nM

Structure (SMILES): COc1ccncc1C1=CC[C@H]2[C@@H]3CC=C4C[C@@H](OC(=O)[C@H](O)[C@@H](NC(=O)c5ccccc5)c5ccccc5)CC[C@]4(C)[C@H]3CC[C@]12C
- IC50 (HepG2 [21]): 67700 nM

Structure (SMILES): CCCCCCn1c[n+](CCCCCC)c2c1[C@@]1(C)CC[C@H]3[C@@H](CC=C4C[C@@H](O)CC[C@@]43C)[C@@H]1C2.[I-]
- MIC (Bacillus cereus): 1 µg/mL
- MIC (Corynebacterium sp.): 8 µg/mL
- MIC (Staphylococcus aureus [8]): 1 µg/mL
- MIC (Staphylococcus aureus [9]): 0.5 µg/mL
- MIC (Staphylococcus aureus [10]): 1 µg/mL
- MIC (Enterococcus faecalis): 4 µg/mL
- MIC (Brevibacterium): 0.5 µg/mL
- MIC (Staphylococcus aureus [11]): 1 µg/mL
- MIC (Escherichia coli): 4 µg/mL
- MIC (Staphylococcus aureus [12]): 0.5 µg/mL
- MIC (Candida albicans): 1 µg/mL

Structure (SMILES): C[C@]12CC[C@H](O)CC1=CC[C@@H]1[C@@H]2CC[C@]2(C)C(n3cnc4ccccc43)=C(C=O)C[C@@H]12
- IC50 [14]: 127 nM

Structure (SMILES): C[C@]12CC[C@H]3[C@@H](CC=C4C[C@@H](O)CC[C@@]43C)[C@@H]1CC[C@@H]2c1cc(-c2ccc(O)cc2)c(C#N)c(N)n1
- IC50 (HepG2 [22]): 12400 nM
- IC50 (HeLa [17]): 8140 nM
- IC50 (SK-OV-3): 5080 nM
- IC50 (MCF7 [23]): 8810 nM

Structure (SMILES): C[C@]12CC[C@H](O)CC1=CC[C@@H]1[C@@H]2CC[C@]2(C)c3nc(N)nc(-c4ccccc4Cl)c3C[C@@H]12
- IC50 (HepG2 [24]): 5410 nM
- IC50 (Huh-7): 5650 nM
- IC50 (SGC-7901): 10600 nM

Structure (SMILES): COc1cc2c(cc1OS(N)(=O)=O)CC[C@@H]1[C@@H]2CC[C@]2(C)C(c3cncc(Cl)c3)=CC[C@@H]12
- IC50 (HT-29): 110 nM
- IC50 [15]: 30 nM
- IC50 (Tubulin): 2100 nM
- IC50 (CCRF-CEM [16]): 39 nM
- IC50 (HeLa [17]): 370 nM
- IC50 (MDA-MB-231): 110 nM
- IC50 [18]: 200 nM
- IC50 [19]: 400 nM

Structure (SMILES): C[C@]12CC[C@H](O)CC1=CC[C@@H]1[C@@H]2CC[C@]2(C)C(c3ccn(-c4ccc(Cl)cc4)n3)=CC[C@@H]12
- IC50 [2]: 14.2 nM
- IC50 [3]: 35.3 nM
